Data on 24 molecules can be found in US10562912B2 (C&C Research Laboratories, priority 2013, dated 2020).

A word on the IC50: it is the concentration that inhibits the measured activity by half. Read a high IC50 as a need for much substance.

Common to all, as to assay type: cell-based
One assay concerns the target T1, STAT3 (Homo sapiens, UniProt P40763).
T1 construct: plasmid pSTAT3-TA-luc), which contains a stably operating STAT3 promoter; endogenous in cells
Briefly: STAT3 reporter gene assay (luciferase), LNCaP stable cell line (pSTAT3-TA-luc), IL-6 stimulation. The method in brief: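 Cytotoxicity was run on a duplicate plate with CellTiter-Glo, while the other plate gave luciferase read-outs from lysed LNCaP pSTAT3-TA-luc reporter cells. Cells were treated with graded compound concentrations plus IL-6 (10 ng/mL final) for 24–48 h in 3% DCC-FBS medium. Unstimulated and stimulated wells served as negative and positive controls.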
Background: In a reporter assay the amount or activity of a reporter protein is the signal.

A further assay deals with LNCaP. Briefly: Cell growth inhibition assay, prostate cancer cell line LNCaP (medium with 10 ng/mL IL-6). As to conditions: Homo sapiens, medium supplemented with 10 ng/mL of IL-6, 10,000 cells/well.
Another assay relates to DU-145. Briefly: Cell growth inhibition assay, prostate cancer cell line DU-145. As to conditions: Homo sapiens, DU-145 prostate cancer cell line. The method in brief:
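Cancer cells, counted and seeded at 3,000 (DU-145, HCT116) or 5,000 (SW626) cells/well, received graded compound concentrations. Plates incubated 72–96 h at 37° C. with 5% CO2 were then assayed with CellTiter-Glo.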

Structures are written as SMILES.

T1 sequence (P40763 whole entry): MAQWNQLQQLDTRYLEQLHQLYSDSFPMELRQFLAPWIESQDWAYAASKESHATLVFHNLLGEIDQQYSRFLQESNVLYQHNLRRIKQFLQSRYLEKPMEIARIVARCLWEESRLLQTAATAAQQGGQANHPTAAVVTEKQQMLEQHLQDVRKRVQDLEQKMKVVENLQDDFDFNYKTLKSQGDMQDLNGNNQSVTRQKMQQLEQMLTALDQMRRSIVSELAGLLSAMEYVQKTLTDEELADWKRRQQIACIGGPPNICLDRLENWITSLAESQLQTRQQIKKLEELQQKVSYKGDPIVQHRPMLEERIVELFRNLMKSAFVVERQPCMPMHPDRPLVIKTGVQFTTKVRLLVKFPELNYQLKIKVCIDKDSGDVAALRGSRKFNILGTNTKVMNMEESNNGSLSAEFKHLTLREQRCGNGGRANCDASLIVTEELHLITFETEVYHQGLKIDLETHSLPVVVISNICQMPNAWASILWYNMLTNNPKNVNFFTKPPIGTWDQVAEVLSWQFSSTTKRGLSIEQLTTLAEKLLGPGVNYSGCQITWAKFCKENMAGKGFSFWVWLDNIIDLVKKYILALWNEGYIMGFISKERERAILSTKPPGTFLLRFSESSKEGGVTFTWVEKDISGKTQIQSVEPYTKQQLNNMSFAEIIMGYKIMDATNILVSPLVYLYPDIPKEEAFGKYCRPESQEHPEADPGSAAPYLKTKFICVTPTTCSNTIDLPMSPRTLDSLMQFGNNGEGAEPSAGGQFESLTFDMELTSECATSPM

With `CC(C)Oc1cc(OC(F)(F)F)cc(C(C)(C)c2cc(Cl)cc(NC(=O)c3cc4cc(NS(C)(=O)=O)ccc4[s+]3[O-])c2)c1` (stereo not drawn) [Example 223, N-(3-chloro-5-(2-(3-isopropoxy-5-(trifluoromethoxy)phenyl)propan-2-yl)phenyl)-5-(methylsulfonamido)benzo[b]thiophene-2-carboxamide 1-oxide], the IC50 stood at 0.24 µM against STAT3, 0.17 µM with LNCaP and 0.005 µM with DU-145.

As for `CS(=O)(=O)Nc1ccc2sc(C(=O)Nc3cc(Cl)cc(-c4ccc(F)cc4F)n3)cc2c1` [Example 331, N-(4-chloro-6-(2,4-difluorophenyl)pyridin-2-yl)-5-(methylsulfonamido)benzo[b]thiophene-2-carboxamide], the IC50 on STAT3 is 0.051 µM; with LNCaP, 0.15 µM; in the assay on DU-145 it was 0.034 µM.

As for `CS(=O)(=O)Nc1ccc2sc(C(=O)Nc3cc(Cl)cc(-c4ccsc4)c3)cc2c1` [Example 332, N-(3-chloro-5-(thiophen-3-yl)phenyl)-5-(methylsulfonamido)benzo[b]thiophene-2-carboxamide], the 50% inhibitory concentration (IC50) on STAT3 is 0.061 µM; in the assay on LNCaP, 0.17 µM; with DU-145 it was 0.042 µM.

As to `CS(=O)(=O)Nc1cc2cc(C(=O)Nc3cc(Cl)cc(-c4ccc(F)cc4F)c3)sc2cc1Cl` [Example 333, 6-chloro-N-(5-chloro-2′,4′-difluoro-[1,1′-biphenyl]-3-yl)-5-(methylsulfonamido)benzo[b]thiophene-2-carboxamide], the 50% inhibitory concentration (IC50) against STAT3 is 0.016 µM; with LNCaP it was 0.015 µM; in the assay on DU-145, 0.004 µM.

On to `Cn1cccc1-c1cc(Cl)cc(NC(=O)c2cc3cc(NS(C)(=O)=O)ccc3s2)c1` [Example 334, N-(3-chloro-5-(1-methyl-1H-pyrrol-2-yl)phenyl)-5-(methylsulfonamido)benzo[b]thiophene-2-carboxamide], for which the results for the IC50 against STAT3, with LNCaP and with DU-145 were 0.096 µM, 0.14 µM and 0.059 µM, respectively.

In the case of `CS(=O)(=O)Nc1ccc2sc(C(=O)Nc3cc(Cl)cc(-c4ccc(F)cc4F)c3)c(O)c2c1` [Example 335, N-(5-chloro-2′,4′-difluoro-[1,1′-biphenyl]-3-yl)-3-hydroxy-5-(methylsulfonamido)benzo[b]thiophene-2-carboxamide], the results for the IC50 against STAT3, in the assay with LNCaP and in the assay on DU-145 were 5.7 µM, more than 1.1 µM and more than 1.1 µM, respectively.

`CS(=O)(=O)Nc1ccc2sc(C(=O)Nc3cc(Cl)cc(-c4cccs4)c3)cc2c1` [Example 336, N-(3-chloro-5-(thiophen-2-yl)phenyl)-5-(methylsulfonamido)benzo[b]thiophene-2-carboxamide]: the IC50 on STAT3 is 0.13 µM; in the assay with LNCaP it was 0.21 µM; in the assay on DU-145 it was 0.065 µM.

As to `CS(=O)(=O)Nc1ccc2sc(C(=O)Nc3cc(-c4ccc(F)cc4F)cc(Cl)n3)cc2c1` [Example 337, N-(6-chloro-4-(2,4-difluorophenyl)pyridin-2-yl)-5-(methylsulfonamido)benzo[b]thiophene-2-carboxamide], the half-inhibitory concentration (IC50) stood at 0.27 µM at STAT3, 0.94 µM with LNCaP and 0.43 µM in the assay with DU-145.

With `CS(=O)(=O)Nc1ccc2sc(C(=O)Nc3cc(Cl)cc(-c4cnccn4)c3)cc2c1` [Example 338, N-(3-chloro-5-(pyrazin-2-yl)phenyl)-5-(methylsulfonamido)benzo[b]thiophene-2-carboxamide], the figures for the IC50 against STAT3, with LNCaP and with DU-145 were 0.92 µM, more than 1.1 µM and 0.43 µM, respectively.

On to `CS(=O)(=O)Nc1ccc2sc(C(=O)Nc3cc(Cl)cc(-c4cncc(Cl)n4)c3)cc2c1` [Example 339, N-(3-chloro-5-(6-chloropyrazin-2-yl)phenyl)-5-(methylsulfonamido)benzo[b]thiophene-2-carboxamide], for which the IC50 was determined as 0.76 µM against STAT3, 0.56 µM with LNCaP and 0.31 µM with DU-145.

As to `Cn1cncc1-c1cc(Cl)cc(NC(=O)c2cc3cc(NS(C)(=O)=O)ccc3s2)c1` [Example 340, N-(3-chloro-5-(1-methyl-1H-imidazol-5-yl)phenyl)-5-(methylsulfonamido)benzo[b]thiophene-2-carboxamide], the IC50 was more than 10 µM at STAT3, more than 1.1 µM with LNCaP and more than 1.1 µM in the assay with DU-145.

For the molecule `CS(=O)(=O)Nc1ccc2sc(C(=O)Nc3cc(Cl)cc(C4(c5ccc(Cl)cc5)CC4)c3)cc2c1` [Example 432, N-(3-chloro-5-(1-(4-chlorophenyl)cyclopropyl)phenyl)-5-(methylsulfonamido)benzo[b]thiophene-2-carboxamide], the 50% inhibitory concentration (IC50) on STAT3 was 0.049 µM; with LNCaP, 0.073 µM; in the assay with DU-145 it was 0.06 µM.

As for `CS(=O)(=O)Nc1cc2cc(C(=O)Nc3cc(Cl)cc(C4(c5ccc(Cl)cc5)CC4)c3)sc2cc1Cl` [Example 433, 6-chloro-N-(3-chloro-5-(1-(4-chlorophenyl)cyclopropyl)phenyl)-5-(methylsulfonamido)benzo[b]thiophene-2-carboxamide], the concentration for half-maximal inhibition (IC50) amounted to 0.013 µM on STAT3, 0.01 µM in the assay on LNCaP and 0.006 µM with DU-145.

On to `CN(c1ccc(Cl)cc1)c1cc(Cl)cc(NC(=O)c2cc3cc(NS(C)(=O)=O)c(Cl)cc3s2)c1` [Example 441, 6-chloro-N-(3-chloro-5-((4-chlorophenyl)(methyl)amino)phenyl)-5-(methylsulfonamido)benzo[b]thiophene-2-carboxamide], for which the results for the IC50 at STAT3, in the assay with LNCaP and in the assay with DU-145 were 0.009 µM, 0.012 µM and 0.026 µM, respectively.

Turning to `CN(c1cc(Cl)cc(NC(=O)c2cc3cc(NS(C)(=O)=O)c(Cl)cc3s2)c1)c1ccc(F)cc1F` [Example 442, 6-chloro-N-(3-chloro-5-((2,4-difluorophenyl)(methyl)amino)phenyl)-5-(methylsulfonamido)benzo[b]thiophene-2-carboxamide], the figures for the IC50 against STAT3, in the assay with LNCaP and with DU-145 were 0.021 µM, 0.036 µM and 0.013 µM, respectively.

For the molecule `CC(C)Oc1cc(OC(F)(F)F)cc(N(C)c2cc(Cl)cc(NC(=O)c3cc4cc(NS(C)(=O)=O)ccc4s3)c2)c1` [Example 443, N-(3-chloro-5-((3-isopropoxy-5-(trifluoromethoxy)phenyl)(methyl)amino)phenyl)-5-(methylsulfonamido)benzo[b]thiophene-2-carboxamide], the IC50 against STAT3 was determined as 0.065 µM; with LNCaP it was 0.039 µM; in the assay on DU-145, 0.02 µM.

For `CS(=O)(=O)Nc1ccc2sc(C(=O)Nc3cc(Cl)cc(Oc4ccc(F)cc4)c3)cc2c1` [Example 446, N-(3-chloro-5-(4-fluorophenoxy)phenyl)-5-(methylsulfonamido)benzo[b]thiophene-2-carboxamide], the half-inhibitory concentration (IC50) against STAT3 worked out at 0.096 µM; with LNCaP, 0.13 µM; in the assay with DU-145 it was 0.065 µM.

For `COc1ccc(Oc2cc(Cl)cc(NC(=O)c3cc4cc(NS(C)(=O)=O)ccc4s3)c2)cc1` [Example 447, N-(3-chloro-5-(4-methoxyphenoxy)phenyl)-5-(methylsulfonamido)benzo[b]thiophene-2-carboxamide], the IC50 is 0.27 µM against STAT3, 0.49 µM with LNCaP and 0.14 µM with DU-145.

For `CS(=O)(=O)Nc1ccc2sc(C(=O)Nc3cc(Cl)cc(Oc4cc(F)ccc4F)c3)cc2c1` [Example 448, N-(3-chloro-5-(2,5-difluorophenoxy)phenyl)-5-(methylsulfonamido)benzo[b]thiophene-2-carboxamide], the half-inhibitory concentration (IC50) on STAT3 was determined as 0.23 µM; in the assay with LNCaP, 0.35 µM; with DU-145 it was 0.16 µM.

Regarding `CS(=O)(=O)Nc1cc2cc(C(=O)Nc3cc(Cl)cc(Oc4ccc(Cl)cc4)c3)sc2cc1Cl` [Example 449, 6-chloro-N-(3-chloro-5-(4-chlorophenoxy)phenyl)-5-(methylsulfonamido)benzo[b]thiophene-2-carboxamide], the IC50 on STAT3 turned out to be 0.024 µM; with LNCaP, 0.022 µM; with DU-145 it was 0.01 µM.

Take `CS(=O)(=O)Nc1ccc2sc(C(=O)Nc3cc(Cl)cc(Oc4cccc(OC(F)(F)F)c4)c3)cc2c1` [Example 450, N-(3-chloro-5-(3-(trifluoromethoxy)phenoxy)phenyl)-5-(methylsulfonamido)benzo[b]thiophene-2-carboxamide]: the values for the IC50 against STAT3, in the assay on LNCaP and in the assay with DU-145 were 0.1 µM, 0.099 µM and 0.06 µM, respectively.

With `CS(=O)(=O)Nc1ccc2sc(C(=O)Nc3cc(Cl)cc(Oc4ccc(C#N)cc4)c3)cc2c1` [Example 451, N-(3-chloro-5-(4-cyanophenoxy)phenyl)-5-(methylsulfonamido)benzo[b]thiophene-2-carboxamide], the IC50 is 0.14 µM against STAT3, 0.51 µM with LNCaP and 0.19 µM in the assay with DU-145.

On to `CC(C)Oc1cc(Oc2cc(Cl)cc(NC(=O)c3cc4cc(NS(C)(=O)=O)ccc4s3)c2)cc(OC(F)(F)F)c1` [Example 452, N-(3-chloro-5-(3-isopropoxy-5-(trifluoromethoxy)phenoxy)phenyl)-5-(methylsulfonamido)benzo[b]thiophene-2-carboxamide], for which the 50% inhibitory concentration (IC50) was 0.079 µM on STAT3, 0.33 µM in the assay with LNCaP and 0.027 µM with DU-145.

As to `CS(=O)(=O)Nc1cc2cc(C(=O)Nc3cc(Cl)cc(Oc4ccc(Cl)cc4)c3)sc2cc1Br` [Example 453, 6-bromo-N-(3-chloro-5-(4-chlorophenoxy)phenyl)-5-(methylsulfonamido)benzo[b]thiophene-2-carboxamide], the 50% inhibitory concentration (IC50) stood at 0.022 µM at STAT3, 0.35 µM with LNCaP and 0.018 µM in the assay on DU-145.
